Data taken from patent publication US9187472B2 (AbbVie Inc., priority 2012, dated 2015).

What was measured:
PC3 cells = test: NAMPT Cell Proliferation Assay; type: cell-based; details: Homo sapiens, PC-3, 120 h, 5 days incubation, cell viability by Cell Titer Glo
Procedure, shortened: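 Following overnight attachment in RPMI with 10% heat-inactivated FBS, PC3 cells at 500 per well receive compounds spanning 10 μM down to 1×10^−5 μM. Growth is assessed by luminescent viability read after 5 days.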

NAMPT = NAMPT (Homo sapiens, UniProt P43490); test: TR-FRET Binding Assay of NAMPT with PRPP; details: with 200 μM PRPP and 2.5 mM ATP; 2 nM NAMPT, 2 nM probe, 16 hours equilibration
Sequence of NAMPT (P43490 whole entry): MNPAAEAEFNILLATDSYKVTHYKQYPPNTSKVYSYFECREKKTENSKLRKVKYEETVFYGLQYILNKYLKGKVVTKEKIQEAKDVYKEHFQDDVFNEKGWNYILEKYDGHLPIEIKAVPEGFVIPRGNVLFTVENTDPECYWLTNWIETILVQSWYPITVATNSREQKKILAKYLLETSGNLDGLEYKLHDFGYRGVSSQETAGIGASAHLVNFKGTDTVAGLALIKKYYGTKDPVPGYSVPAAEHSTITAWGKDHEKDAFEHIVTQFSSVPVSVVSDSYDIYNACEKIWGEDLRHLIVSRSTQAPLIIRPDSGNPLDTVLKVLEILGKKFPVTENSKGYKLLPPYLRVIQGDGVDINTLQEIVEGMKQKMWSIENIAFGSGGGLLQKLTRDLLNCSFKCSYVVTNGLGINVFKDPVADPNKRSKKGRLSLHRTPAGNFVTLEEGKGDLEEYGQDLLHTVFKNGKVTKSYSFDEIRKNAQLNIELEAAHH
Procedure, shortened: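 Human NAMPT (2 nM) with 2 nM probe and 1 nM Tb-anti-His antibody, plus 200 μM PRPP and 2.5 mM ATP, 2% DMSO. TR-FRET read after 16 h equilibration, permitting possible enzymatic modification of test compounds; data processing as for the substrate-free format.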

[1] = molecular target: NAMPT (human, recombinant, C-terminally His-tagged) (Homo sapiens, UniProt P43490); test: Time-Resolved Fluorescence Resonance Energy Transfer (TR-FRET) Binding Assay of NAMPT; details: without substrates; 6.8 nM NAMPT, 200 nM probe, 3 hours equilibration
Sequence of NAMPT (human, recombinant, C-terminally His-tagged) (P43490 whole entry): as above
Procedure, shortened: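 A TR-FRET probe-displacement assay used 6.8 nM His-tagged recombinant human NAMPT, 200 nM Oregon Green 488-labelled nicotinamide-competitive probe and 1 nM Tb-anti-His antibody. Buffer was HEPES pH 7.5 with NaCl, MgCl2, DTT and glycerol, plus 2% DMSO, equilibrated 3 h at room temperature. Em520/Em495 ratios, normalized to controls, gave IC50 by four-parameter logistic fit.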

| SMILES | IC50 (PC3 cells) [nM] | IC50 (NAMPT) [nM] | IC50 [1] [nM] |
| --- | --- | --- | --- |
| Cc1ccccc1C(=O)N1CCC(c2ccc(C(=O)NCc3ccn4ccnc4c3)s2)C1 (stereo not drawn) [Example 794, N-(imidazo[1,2-a]pyridin-7-ylmethyl)-5-[1-(2-methylbenzoyl)pyrrolidin-3-yl]thiophene-2-carboxamide] | 0.883 | 0.465 | 29 |
| CC1(C(=O)N2CCC(c3ccc(C(=O)NCc4ccn5ccnc5c4)s3)C2)CC1 (stereo not drawn) [Example 795, N-(imidazo[1,2-a]pyridin-7-ylmethyl)-5-{1-[(1-methylcyclopropyl)carbonyl]pyrrolidin-3-yl}thiophene-2-carboxamide] | 6.2 | 0.764 | 89.6 |
| O=C(NCc1ccn2ccnc2c1)c1ccc(C2CCN(C(=O)CCC(F)(F)F)C2)s1 (stereo not drawn) [Example 796, N-(imidazo[1,2-a]pyridin-7-ylmethyl)-5-[1-(4,4,4-trifluorobutanoyl)pyrrolidin-3-yl]thiophene-2-carboxamide] | 4.65 | 0.49 | 91.7 |
| Cc1noc(C)c1C(=O)N1CCC(c2ccc(C(=O)NCc3ccn4ccnc4c3)s2)C1 (stereo not drawn) [Example 797, 5-{1-[(3,5-dimethyl-1,2-oxazol-4-yl)carbonyl]pyrrolidin-3-yl}-N-(imidazo[1,2-a]pyridin-7-ylmethyl)thiophene-2-carboxamide] | 6.98 | 0.671 | 97.2 |
| O=C(NCc1ccn2ccnc2c1)c1ccc(C2CCN(C(=O)c3cccnc3)C2)s1 (stereo not drawn) [Example 798, N-(imidazo[1,2-a]pyridin-7-ylmethyl)-5-[1-(pyridin-3-ylcarbonyl)pyrrolidin-3-yl]thiophene-2-carboxamide] | 9.63 | 0.47 | 95.7 |
| Cn1nccc1C(=O)N1CCC(c2ccc(C(=O)NCc3ccn4ccnc4c3)s2)C1 (stereo not drawn) [Example 799, N-(imidazo[1,2-a]pyridin-7-ylmethyl)-5-{1-[(1-methyl-1H-pyrazol-5-yl)carbonyl]pyrrolidin-3-yl}thiophene-2-carboxamide] | 6.96 | 0.406 | 102 |
| CC(C)C(C)C(=O)N1CCC(c2ccc(C(=O)NCc3ccn4ccnc4c3)s2)C1 (stereo not drawn) [Example 800, 5-[1-(2,3-dimethylbutanoyl)pyrrolidin-3-yl]-N-(imidazo[1,2-a]pyridin-7-ylmethyl)thiophene-2-carboxamide] | 6.21 | 0.925 | 82.1 |
| O=C(NCc1ccn2ccnc2c1)c1ccc(C2=CCN(S(=O)(=O)c3ccccc3)CC2)o1 [Example 801, N-(imidazo[1,2-a]pyridin-7-ylmethyl)-5-[1-(phenylsulfonyl)-1,2,3,6-tetrahydropyridin-4-yl]furan-2-carboxamide] | 57.3 | 1 | 866 |
| O=C(NCc1ccn2ccnc2c1)c1cnc(C2CCN(C(=O)c3ccccc3F)CC2)s1 [Example 802, 2-[1-(2-fluorobenzoyl)piperidin-4-yl]-N-(imidazo[1,2-a]pyridin-7-ylmethyl)-1,3-thiazole-5-carboxamide] | 5.83 | 0.533 | 35.9 |
| O=C(NCc1ccn2ccnc2c1)c1ccc(C2=CCN(C(=O)c3ccccc3F)CC2)o1 [Example 803, 5-[1-(2-fluorobenzoyl)-1,2,3,6-tetrahydropyridin-4-yl]-N-(imidazo[1,2-a]pyridin-7-ylmethyl)furan-2-carboxamide] | 17.6 | 1.01 | 314 |
| O=C(NCc1ccn2ccnc2c1)c1cnc(C2CCN(C(=O)c3ccccc3F)C2)s1 (stereo not drawn) [Example 804, 2-[1-(2-fluorobenzoyl)pyrrolidin-3-yl]-N-(imidazo[1,2-a]pyridin-7-ylmethyl)-1,3-thiazole-5-carboxamide] | 49.7 | 0.445 | 289 |
| CC(C)C(=O)N1CCC(c2ncc(C(=O)NCc3ccn4ccnc4c3)s2)C1 (stereo not drawn) [Example 805, N-(imidazo[1,2-a]pyridin-7-ylmethyl)-2-[1-(2-methylpropanoyl)pyrrolidin-3-yl]-1,3-thiazole-5-carboxamide] | 7820 | 1.12 | 3920 |
| CC(C)CC(=O)N1CCC(c2ncc(C(=O)NCc3ccn4ccnc4c3)s2)C1 (stereo not drawn) [Example 806, N-(imidazo[1,2-a]pyridin-7-ylmethyl)-2-[1-(3-methylbutanoyl)pyrrolidin-3-yl]-1,3-thiazole-5-carboxamide] | 1400 | 0.543 | 2740 |
| O=C(NCc1ccn2ccnc2c1)c1cnc(C2CCN(C(=O)c3ccccc3)C2)s1 (stereo not drawn) [Example 807, 2-(1-benzoylpyrrolidin-3-yl)-N-(imidazo[1,2-a]pyridin-7-ylmethyl)-1,3-thiazole-5-carboxamide] | 100 | 0.509 | 628 |
| CC(C)(C)OC(=O)N1CCN(CCn2cc(-c3ccc(C(=O)NCc4ccn5ccnc5c4)s3)cn2)CC1 [Example 808, tert-butyl 4-[2-(4-{5-[(imidazo[1,2-a]pyridin-7-ylmethyl)carbamoyl]thiophen-2-yl}-1H-pyrazol-1-yl)ethyl]piperazine-1-carboxylate] | 1.1 | 0.568 | 94.4 |
| O=C(NCc1ccn2ccnc2c1)c1ccc(-c2cnn(CCN3CCNCC3)c2)s1 [Example 809, N-(imidazo[1,2-a]pyridin-7-ylmethyl)-5-{1-[2-(piperazin-1-yl)ethyl]-1H-pyrazol-4-yl}thiophene-2-carboxamide] | 33.2 | 0.63 | 95.3 |
| O=C(NCc1ccc2ncnn2c1)c1ccc(-c2cnn(CC3(F)CCOCC3)c2)o1 [Example 810, 5-{1-[(4-fluorotetrahydro-2H-pyran-4-yl)methyl]-1H-pyrazol-4-yl}-N-([1,2,4]triazolo[1,5-a]pyridin-6-ylmethyl)furan-2-carboxamide] | 327 | 12.6 | 481 |
| CC(C)C(=O)N1CCC(c2ccc(C(=O)NCc3cn4ccnc4cn3)cc2)CC1 [Example 811, N-(imidazo[1,2-a]pyrazin-6-ylmethyl)-4-[1-(2-methylpropanoyl)piperidin-4-yl]benzamide] | 11.4 | 2.86 | 99.8 |
| O=C(NCc1cn2ccnc2cn1)c1ccc(C2CCN(C(=O)c3ccc(F)cc3)CC2)cc1 [Example 812, 4-[1-(4-fluorobenzoyl)piperidin-4-yl]-N-(imidazo[1,2-a]pyrazin-6-ylmethyl)benzamide] | 38.8 | 2.57 | 80 |
| O=C(NCc1cn2ccnc2cn1)c1ccc(C2CCN(C(=O)c3cc(F)ccc3F)CC2)cc1 [Example 813, 4-[1-(2,5-difluorobenzoyl)piperidin-4-yl]-N-(imidazo[1,2-a]pyrazin-6-ylmethyl)benzamide] | 2.21 | 1.53 | 11.2 |
| CC1(C(=O)N2CCC(c3ccc(C(=O)NCc4cn5ccnc5cn4)cc3)CC2)CC1 [Example 814, N-(imidazo[1,2-a]pyrazin-6-ylmethyl)-4-{1-[(1-methylcyclopropyl)carbonyl]piperidin-4-yl}benzamide] | 4.5 | 1.63 | 68.7 |
| O=C(NCc1cn2ccnc2cn1)c1ccc(C2CCN(C(=O)CC(F)(F)F)CC2)cc1 [Example 815, N-(imidazo[1,2-a]pyrazin-6-ylmethyl)-4-[1-(3,3,3-trifluoropropanoyl)piperidin-4-yl]benzamide] | 5.89 | 1.93 | 53 |
